The record followed here is patent publication US9221832B2, “Heterocyclic amide derivatives as P2X7 receptor antagonists” (ACTELION PHARMACEUTICALS LTD., priority 2011, dated 2015).

Structures are written as SMILES.

The target of the test is human recombinant P2X7 receptor (Homo sapiens (Human), UniProt Q99572). Kind of test: YO-PRO assay: P2X7 receptor antagonistic activity. It counts as cell-based. The settings on record: HEK cells expressing human P2X7. As for the experimental part: The P2X7 receptor antagonistic activity of the compounds of formula (I) is determined in accordance with the following experimental method.
Cell Line Generation and YO-PRO Assay
Cell line generation was performed in general according to established molecular cloning protocols. Specifically, RNA was extracted from human whole blood using the Qiagen RNeasy kit (Qiagen, CH) according to the manufacturer's instructions. Subsequently cDNA was made (Superscript II, Invitrogen AG, CH) and the human P2X7 gene (genbank ref. BC011913) was amplified with the following primers: […] and […]. The amplified sequence was subsequently ligated into a pcDNA3.1 (+) NotI, NheI digested plasmid. […] Following a 24 h exposure to DNA, cells were trypsinized and re-seeded at low density in the presence of 250 μg Geneticin. Geneticin resistant cells were then selected during two consecutive rounds of cloning by serial limiting dilution with visual inspection. Individual clones were screened for P2X7 expression by applying ATP and recording the resultant uptake of YO-PRO1. Specific cell clones were chosen based on RNA and protein expression. HEK cells stably expressing P2X7 were used to screen drugs using the YO-PRO1 assay. Cells were grown to confluency in adherent culture at 37° C. in a humidified 5% CO2 incubator (split 1/5 every 3-4 days with DMEM, 10% FCS, 1% Penicillin/Streptomycin, 250 μg/ml Geneticin). Adherent cells were detached by incubation with Trypsine (1 ml per 165 cm^2 dish) for 2 minutes, then washed off with 10 ml PBS (without Mg^2+ and Ca^2+), and resuspended in DMEM, 10% FCS, 1% Penicillin/Streptomycin, no Geneticin. […] During this time period, four time points were taken. Each time point comprised the average of several measurements made within a few seconds. […] The FLIPR tetra was equipped with Molecular Devices Screen Works system control software to define and run experimental protocols. […] For IC50 measurements the maximum intensity is plotted against the concentration of compound to determine IC50 values.

Chain of human recombinant P2X7 receptor (Q99572 whole entry): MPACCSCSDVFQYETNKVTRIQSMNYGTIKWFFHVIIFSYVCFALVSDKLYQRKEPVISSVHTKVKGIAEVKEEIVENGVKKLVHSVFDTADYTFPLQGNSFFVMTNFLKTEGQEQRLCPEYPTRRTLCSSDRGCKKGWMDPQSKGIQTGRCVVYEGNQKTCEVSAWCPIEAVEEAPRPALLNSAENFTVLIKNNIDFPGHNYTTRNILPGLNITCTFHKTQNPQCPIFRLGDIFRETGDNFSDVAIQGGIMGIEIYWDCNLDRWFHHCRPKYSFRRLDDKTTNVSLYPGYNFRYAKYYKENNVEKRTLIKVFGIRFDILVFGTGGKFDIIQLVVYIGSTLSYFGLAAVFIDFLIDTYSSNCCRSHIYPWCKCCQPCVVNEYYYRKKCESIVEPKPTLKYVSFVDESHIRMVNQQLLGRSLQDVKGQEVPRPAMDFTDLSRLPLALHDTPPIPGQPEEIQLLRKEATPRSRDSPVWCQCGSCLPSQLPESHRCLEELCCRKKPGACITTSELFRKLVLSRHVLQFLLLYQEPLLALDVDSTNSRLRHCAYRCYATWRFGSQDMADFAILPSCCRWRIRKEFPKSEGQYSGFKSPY

Consider `O=C(Cc1c(F)cccc1Cl)NC1CCOc2ncccc21` (racemic) [Example 50, rac-2-(2-Chloro-6-fluoro-phenyl)-N-(3,4-dihydro-2H-pyrano[2,3-b]pyridin-4-yl)-acetamide], for which the IC50 was 2630 nM.

As to `N#Cc1cc(Cl)cc(Cl)c1CC(=O)NC1COc2ncccc21` (racemic) [Example 37, rac-2-(2,4-Dichloro-6-cyano-phenyl)-N-(2,3-dihydro-furo[2,3-b]pyridin-3-yl)-acetamide], the IC50 came out at 324 nM.

Consider `COc1ccc(CC(=O)NC2COc3ncccc32)c(OC)c1` (racemic) [Example 19, rac-N-(2,3-Dihydro-furo[2,3-b]pyridin-3-yl)-2-(2,4-dimethoxy-phenyl)-acetamide], for which the IC50 was over 6660 nM.

With `O=C(Cc1ccc(F)cc1C(F)(F)F)NC1CCOc2ncccc21` (racemic) [Example 52, rac-N-(3,4-Dihydro-2H-pyrano[2,3-b]pyridin-4-yl)-2-(4-fluoro-2-trifluoromethyl-phenyl)-acetamide], the IC50 stood at 1870 nM.

For the compound `O=C(Cc1c(F)cc(Cl)cc1Cl)NC1CCOc2ncccc21` (racemic) [Example 70, rac-2-(2,4-Dichloro-6-fluoro-phenyl)-N-(3,4-dihydro-2H-pyrano[2,3-b]pyridin-4-yl)-acetamide], the IC50 is 386 nM.

Turning to `O=C(Cc1ccc(Cl)c(Cl)c1)NC1COc2ncccc21` (racemic) [Example 21, rac-2-(3,4-Dichloro-phenyl)-N-(2,3-dihydro-furo[2,3-b]pyridin-3-yl)-acetamide], the IC50 came out at 473 nM.

On to `COc1cc(C)nc2c1C(NC(=O)Cc1cccc(C(F)(F)F)c1Cl)CO2` (racemic) [Example 135, rac-2-(2-Chloro-3-trifluoromethyl-phenyl)-N-(4-methoxy-6-methyl-2,3-dihydro-furo[2,3-b]pyridin-3-yl)-acetamide], for which the IC50 was over 4780 nM.

`O=C(Cc1cc(F)c(Cl)cc1Cl)NC1COc2ncccc21` (racemic) [Example 41, rac-2-(2,4-Dichloro-5-fluoro-phenyl)-N-(2,3-dihydro-furo[2,3-b]pyridin-3-yl)-acetamide]: the IC50 was 332 nM.

As for `O=C(Cc1cccc(C(F)(F)F)c1Cl)NC1COc2ncccc21` (racemic) [Example 34, rac-2-(2-Chloro-3-trifluoromethyl-phenyl)-N-(2,3-dihydro-furo[2,3-b]pyridin-3-yl)-acetamide], the IC50 was 7.4 nM.

As for `Cc1nccc2c1OCC2NC(=O)Cc1ccc(Cl)cc1Cl` (racemic) [Example 100, rac-2-(2,4-Dichloro-phenyl)-N-(7-methyl-2,3-dihydro-furo[2,3-c]pyridin-3-yl)-acetamide], the IC50 was determined as 52 nM.

As for `N#Cc1cccc(CC(=O)NC2COc3ncccc32)c1Cl` (racemic) [Example 75, rac-2-(2-Chloro-3-cyano-phenyl)-N-(2,3-dihydro-furo[2,3-b]pyridin-3-yl)-acetamide], the concentration for half-maximal inhibition (IC50) came out at 22 nM.

On to `CCOc1cc(C)nc2c1C(NC(=O)Cc1cccc(C(F)(F)F)c1Cl)CO2` (racemic) [Example 136, rac-2-(2-Chloro-3-trifluoromethyl-phenyl)-N-(4-ethoxy-6-methyl-2,3-dihydro-furo[2,3-b]pyridin-3-yl)-acetamide], for which the concentration for half-maximal inhibition (IC50) was over 10000 nM.

For `CC(C(=O)NC1CCOc2ncccc21)c1ccc(Cl)cc1` (stereo not drawn) [Example 64, 2-(4-Chloro-phenyl)-N-(3,4-dihydro-2H-pyrano[2,3-b]pyridin-4-yl)-propionamide], the concentration for half-maximal inhibition (IC50) was determined as 1520 nM.

As to `Cc1cc(Cl)cc(Cl)c1CC(=O)NC1COc2ncccc21` (single isomer, unassigned) [Example 7, 2-(2,4-Dichloro-6-methyl-phenyl)-N-(2,3-dihydro-furo[2,3-b]pyridin-3-yl)-acetamide], the IC50 worked out at 3.5 nM.

Turning to `O=C(Cc1c(Cl)cc(Cl)cc1C1CC1)NC1COc2ncccc21` (racemic) [Example 39, rac-2-(2,4-Dichloro-6-cyclopropyl-phenyl)-N-(2,3-dihydro-furo[2,3-b]pyridin-3-yl)-acetamide], the 50% inhibitory concentration (IC50) came out at 54 nM.

Take `O=C(NC1COc2ncccc21)C(CN1CCCC1)c1ccc(Cl)cc1Cl` (stereo not drawn) [Example 81, 2-(2,4-Dichloro-phenyl)-N-2,3-dihydro-furo[2,3-b]pyridin-3-yl-3-pyrrolidin-1-yl-propionamide]: the IC50 was 1970 nM.

With `CC(C(=O)NC1COc2ncccc21)c1ccc(Cl)cc1Cl` (single isomer, unassigned) [Example 93, 2-(2,4-Dichloro-phenyl)-N-2,3-dihydro-furo[2,3-b]pyridin-3-yl-propionamide], the half-inhibitory concentration (IC50) is 137 nM.

For the compound `O=C(Cc1cccc(C(F)(F)F)c1Cl)NC1COc2cnccc21` (racemic) [Example 87, rac-2-(2-Chloro-3-trifluoromethyl-phenyl)-N-(2,3-dihydro-furo[2,3-c]pyridin-3-yl)-acetamide], the IC50 is 4.6 nM.

Take `O=C(Cc1ccc(Oc2ccccc2)cc1)NC1CCOc2ncccc21` (racemic) [Example 48, rac-N-(3,4-Dihydro-2H-pyrano[2,3-b]pyridin-4-yl)-2-(4-phenoxy-phenyl)-acetamide]: the concentration for half-maximal inhibition (IC50) stood at 3300 nM.

For the compound `O=C(Cc1cccnc1Cl)NC1CCOc2ncccc21` (racemic) [Example 60, rac-2-(2-Chloro-pyridin-3-yl)-N-(3,4-dihydro-2H-pyrano[2,3-b]pyridin-4-yl)-acetamide], the IC50 amounted to 780 nM.

In the case of `Cc1ccc(OCC(=O)NC2COc3ncccc32)c(C)c1` (racemic) [Example 142, rac-N-(2,3-Dihydro-furo[2,3-b]pyridin-3-yl)-2-(2,4-dimethyl-phenoxy)-acetamide], the IC50 is over 9950 nM.

As for `CC(C(=O)NC1COc2ncccc21)c1ccc(Cl)cc1Cl` (single isomer, unassigned) [Example 92, 2-(2,4-Dichloro-phenyl)-N-2,3-dihydro-furo[2,3-b]pyridin-3-yl-propionamide], the concentration for half-maximal inhibition (IC50) was 9 nM.

With `O=C(Cc1cccc(OC(F)(F)F)c1Cl)NC1COc2ncccc21` (racemic) [Example 108, rac-2-(2-Chloro-3-trifluoromethoxy-phenyl)-N-(2,3-dihydro-furo[2,3-b]pyridin-3-yl)-acetamide], the IC50 came out at 71 nM.

Turning to `O=C(NC1CCOc2ncccc21)C1(c2ccc(Cl)cc2Cl)CC1` (racemic) [Example 58, rac-1-(2,4-Dichloro-phenyl)-cyclopropanecarboxylic acid (3,4-dihydro-2H-pyrano[2,3-b]pyridin-4-yl)-amide], the half-inhibitory concentration (IC50) was determined as 294 nM.

Regarding `O=C(NC1COc2ncccc21)C1CCc2cc(Cl)cc(Cl)c21` (single isomer, unassigned) [Example 147, 5,7-dichloro-N-(2,3-dihydrofuro[2,3-b]pyridin-3-yl)-2,3-dihydro-1H-indene-1-carboxamide], the IC50 worked out at 40 nM.

Consider `Cc1cc(Cl)cc(Cl)c1CC(=O)NC1COc2ncccc21` (racemic) [Example 5, rac-2-(2,4-Dichloro-6-methyl-phenyl)-N-(2,3-dihydro-furo[2,3-b]pyridin-3-yl)-acetamide], for which the IC50 worked out at 12 nM.

Consider `Cc1ccnn1CC(=O)NC1CCOc2ncccc21` (racemic) [Example 63, rac-N-(3,4-Dihydro-2H-pyrano[2,3-b]pyridin-4-yl)-2-(5-methyl-pyrazol-1-yl)-acetamide], for which the IC50 is over 5720 nM.

Usually IC50 stands for the concentration that gives 50% inhibition.
